Measured values reported in US10702465B2, “Oral care formulation and method for the removal of tartar and plaque from teeth” (priority 2015, dated 2020).
Entries after “also recorded” stand apart in the source; their conditions may differ.

Key:
[1] = 24 hour period, 100% and 50% aqueous concentrations; cited from earlier work
[2] = system: Streptococcus mutans; conditions: high concentrations; cited from earlier work
[3] = Centrifuge studies of colloidal fragmentation of tartar; format: in vivo, human; conditions: each agent alone
Text: Together DMI and chlorine dioxide fragment the insoluble glucan and polypeptide matrix which hold tartar together. […] Not to be held to any specific mechanism of action, it would appear that the primary role of chlorine dioxide is to break polypeptide linkages and protein polyol linkages. But this ability alone is insufficient for tartar fragmentation. The insoluble glucan matrix also appears to provide much of the needed glue to keep the tartar intact. Dimethyl isosorbide appears to enter the cracks within the insoluble glucan structure and splay out the glucan structure which in turn promotes the entry of water to re-hydrate the normally insoluble glucan and destabilize and glucan/biofilm matrix and fragment the tartar structure. Evidence for this rehydration and fragmentation mechanism is provided in the following two studies.
In the first study the subject's teeth were flossed with Reach floss, then flossed with a Waterpik water flosser. After the water flossing the water was removed from the mouth. 3 ml of distilled water was added to the mouth and the teeth were brushed with only water for 2 minutes. After the 2 minutes brushing cycle, the water was expelled into a funnel into a centrifuge tube. The subject's teeth were again flossed with a water flosser and then procedure “A” was followed three more times for a total of four 2 minute brushing cycles. […]

[4] = background statement; cited from earlier work
[5] = Tartar removal trials by flossing and brushing, intraoral photographs (Example 5); format: in vivo, human; conditions: with chlorine dioxide
Text: All photographs in this example were taken by a professional oral hygienist using a Schick intraoral digital camera.
In other unsuccessful trials dimethyl isosorbide was mixed with numerous common tartar reducing toothpastes. The following picture is typical the failed result of six months of flossing with Reach® waxed floss and brushing twice per day with these various tartar reducing toothpastes with a Philips Sonicare® toothbrush for two minutes. The DMI concentration in each case was 7.1% (w).
The white spots present in FIGS. 15 and 17 are from enamel erosion from previous years of heavy tartar presence and attack of the enamel by bacteria.
In a separate study, 5% (w) DMI was mixed with 0.0094% (w) chlorine dioxide in of water [94.5% (w)]. After flossing the DMI-chlorine dioxide-water mixture was transferred to the mouth of the subject and the subject brushed the teeth for 2 minutes with Philips Sonicare®. After 6 weeks of flossing and brushing twice per day with the DMI-chlorine dioxide-water mixture, the photograph of FIG. 16 was taken.
After the picture of FIG. 16 was taken the trial formulation was changed from 5% (w) to 15% DMI 0.0085% (w) chlorine dioxide in water [84.9% (w)]. This new formulation was used for 8 weeks with the same flossing and brushing regimen used in the first 6 weeks. […]

[6] = Tolerability of chlorine dioxide concentrations in use

| SMILES | dissolution of collected dental tartar [1] | antibacterial properties [2] | ability to fragment the tartar matrix ([3]; listed as DMI) | removal of tartar from teeth [4] | removal of preexisting tartar ([5]; DMI levels above 10% (w)) | level of DMI at which no tartar is reported ([5]; light tartar producers) | ability to fragment the tartar matrix [3] | problems in use ([6]; chlorine dioxide at 0.01%) | problems in use ([6]; increased concentrations of chlorine dioxide (above 0.01%)) |
| --- | --- | --- | --- | --- | --- | --- | --- | --- | --- |
| CO[C@H]1CO[C@H]2[C@@H]1OC[C@H]2OC [DMIS, dimethylisosorbide] | slowly dissolved | weak antibacterial at high concentrations | Neither chlorine dioxide nor DMI by themselves show the ability to fragment the tartar matrix; also recorded: Neither chlorine dioxide nor DMI alone show the ability to fragment this matrix; also recorded: insufficient to allow DMI alone to rehydrate and fragment the tartar matrix | not effective at removing tartar from subjects' teeth in vivo | removed fairly rapidly | around 5% (w) or 8% (w) | – | – | – |
| [O][Cl+][O-] [chlorine dioxide] | – | – | – | ineffective in removing tartar | – | – | Neither chlorine dioxide nor DMI by themselves show the ability to fragment the tartar matrix; also recorded: Neither chlorine dioxide nor DMI alone show the ability to fragment this matrix | no reported problems | no problems |
